We go through one compound from publication PMC11305387, “AlphaFold accelerated discovery of psychotropic agonists targeting the trace amine–associated receptor 1” (Science Advances, 2024).

The structures appear in SMILES notation.

One series has as its target T1, 5-HT1A receptor (Homo sapiens, UniProt P08908).
T1 construct: TANGO fusion module (own knowledge, Kroeze et al.: C-terminal V2 tail, TEV site and tTA); 1000000068; host or cells: HTLA (HEK293-derived)
T1 sequence (P08908 1-422): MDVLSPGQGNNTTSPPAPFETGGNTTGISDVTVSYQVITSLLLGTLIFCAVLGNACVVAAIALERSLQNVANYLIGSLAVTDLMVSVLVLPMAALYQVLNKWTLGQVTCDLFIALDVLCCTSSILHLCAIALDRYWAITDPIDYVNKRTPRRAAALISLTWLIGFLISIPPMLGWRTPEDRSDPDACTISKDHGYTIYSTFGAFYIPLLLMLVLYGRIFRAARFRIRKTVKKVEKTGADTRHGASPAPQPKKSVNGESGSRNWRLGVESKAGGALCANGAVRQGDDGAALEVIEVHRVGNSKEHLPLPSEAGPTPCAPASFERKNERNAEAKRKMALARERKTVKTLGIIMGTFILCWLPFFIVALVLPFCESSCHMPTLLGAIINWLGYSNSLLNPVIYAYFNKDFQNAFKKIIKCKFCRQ
Nature of the series: PRESTO-TANGO β-arrestin recruitment. To be noted: panel screen. It is filed as cell-based. Background: Recruitment of arrestin is a read-out of receptor activation apart from second messengers.

Series [1] can be described thus: Caco-2 cells permeability assay. The format is in vitro ADME. The conditions noted are these: human. Here is the method:
Caco-2 cell monolayers (passages: 94 to 105) were grown on permeable filter support and used for transport study on day 21 after seeding. Before the experiment, a drug solution of 10 μM was prepared and warmed to 37°C. The Caco-2 filters were washed with pre-warmed HBSS before the experiment, and, thereafter, the experiment was started by applying the donor solution on the apical or basolateral side. The transport experiments were carried out at pH 7.4 in both the apical and basolateral chamber. The experiments were performed at 37°C and with a stirring rate of 500 rpm. The receiver compartment was sampled at 15, 30, and 60 min, and, at 60 min, also a final sample from the donor chamber was taken to calculate the mass balance of the compound. The samples (100 μl) were transferred to a 96-well plate containing 100 μl of methanol, and Warfarin as internal standard and was sealed until LC-MS/MS analysis.
In general terms: Passage across Caco-2 layers is used to estimate intestinal permeability.

Series [2] in a line: Plasma protein binding (rapid equilibrium dialysis). The format is in vitro ADME. The conditions noted are these: pH 7.4. Here is the method: Pooled human plasma was provided by Uppsala Academic Hospital and was collected from two donors (nonsmoking) (citric acid). In brief, 0.2 ml of the plasma (50% plasma and 50% isotonic buffer) test solution (typically, 10 μM final compound concentration) was transferred to the membrane tube in the rapid equilibrium dialysis (RED) insert (Thermo Fisher Scientific). Isotonic phosphate buffer (0.35 ml; pH 7.4) was added to the other side of the membrane. The 96-well base plate was then sealed with an adhesive plastic film (Scotch Pad) to prevent evaporation. The sample was incubated with rapid rotation (>900 rpm) on a Kisker rotational incubator at 37°C for 4 hours to achieve equilibrium. A stability test of the test solution was prepared (to allow detection of drug degradation), and 100 μl of the plasma test solution (in a plastic vial or on a sealed plate) was incubated at 37°C for 4 hours (or as long as the dialysis time). The plasma test solution was frozen directly after the administration to prevent any degradation. Before LC-MS/MS analysis, the plasma and buffer samples were treated with the addition of methanol (1:3) containing Warfarin as internal standard to precipitate proteins. The standard curve was created using the plasma standard. The plate was then sealed and centrifuged, and the supernatant was analyzed by LC-MS/MS ([78]).

A further series deals with T2, hTAAR1 (Homo sapiens, UniProt Q96RJ0).
T2 construct: expressed in transfected cells; host or cells: Expi293F
T2 sequence (Q96RJ0 1-339): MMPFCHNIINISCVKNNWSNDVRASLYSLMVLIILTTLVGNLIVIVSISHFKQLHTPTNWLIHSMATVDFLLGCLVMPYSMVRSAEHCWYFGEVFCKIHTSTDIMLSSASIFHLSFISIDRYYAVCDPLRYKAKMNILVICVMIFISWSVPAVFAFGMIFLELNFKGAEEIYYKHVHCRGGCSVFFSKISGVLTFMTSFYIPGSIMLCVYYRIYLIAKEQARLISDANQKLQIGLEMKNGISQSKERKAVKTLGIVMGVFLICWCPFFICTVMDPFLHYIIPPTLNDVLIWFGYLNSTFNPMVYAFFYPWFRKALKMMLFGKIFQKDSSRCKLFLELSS
In words: cAMP accumulation assay (GloSensor-22F). The format is cell-based. Here is the method:
cAMP accumulation was assessed using a previously described system with some modifications ([45]). hTAAR1 and GloSensor-22F were transected with a 1:1 gene dose (1 μg/ml) in Expi293F cells for 48 hours. Cells were then resuspended in assay buffer [Hanks’ balanced salt solution (HBSS), 10 mM Hepes, 2 mM […] (Promega), and 300 μM 3-isobutyl-1-methylxanthine (Sigma-Aldrich)] and seeded with 25,000 cells per well to a white 384-well plate (CulturPlate, PerkinElmer) and incubated for 1 hour in the dark at RT. After a baseline read, compounds were added, and the plate was read for a further 1 hour (SPARK 10 M, Tecan) with 10-min intervals. The final read at 1 hour was used for analysis.
(In general: Changes in cAMP serve as a functional read-out for many G protein-coupled receptors.)

Another series concerns the target T3, α2A receptor (Homo sapiens, UniProt P08913).
T3 construct: TANGO fusion module (own knowledge, Kroeze et al.: C-terminal V2 tail, TEV site and tTA); 1000000068; host or cells: HTLA (HEK293-derived)
T3 sequence (P08913 1-465): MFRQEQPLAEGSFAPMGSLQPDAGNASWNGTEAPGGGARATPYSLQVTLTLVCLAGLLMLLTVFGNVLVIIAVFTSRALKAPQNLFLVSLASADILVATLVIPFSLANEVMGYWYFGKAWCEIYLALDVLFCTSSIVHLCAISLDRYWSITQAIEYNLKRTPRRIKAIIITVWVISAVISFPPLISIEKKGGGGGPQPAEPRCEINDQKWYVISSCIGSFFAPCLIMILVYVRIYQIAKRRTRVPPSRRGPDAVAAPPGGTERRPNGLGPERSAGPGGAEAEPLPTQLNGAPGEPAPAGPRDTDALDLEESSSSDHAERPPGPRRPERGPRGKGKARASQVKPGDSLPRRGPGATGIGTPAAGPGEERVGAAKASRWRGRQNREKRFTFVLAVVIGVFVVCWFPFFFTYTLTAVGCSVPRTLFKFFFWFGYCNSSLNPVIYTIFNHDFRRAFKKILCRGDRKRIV
Nature of the series: PRESTO-TANGO β-arrestin recruitment. The format is cell-based.

For series [3], the system named is TAAR1-WT and TAAR1-KO mice. In words: Core-body temperature (CBT) measurement. It is filed as in vivo. Here is the method: Core temperature was determined by a rectal thermoprobe. Compounds or vehicle was administered intraperitoneally. A basal measurement was performed immediately before injection. Measurements were repeated every 30 min for 2 hours. Mean changes in CBT were calculated by subtracting the value from vehicle treated group at the corresponding time point. A washout of 1 week between different doses of compound 65 was applied, and mice were injected starting with the lowest dose first.

Method for 5-HT1A receptor: (§1) Assessment of receptor activation by compounds at all human aminergic receptors were carried out using a modified version of the PRESTO-TANGO method. […] The plate was spun down, and 5 μl of a 1:25 dilution (in DPBS) of polyethylenimine (PEI) derivative (Transporter 5, Polysciences) was added (1:4 cDNA to PEI ratio) and incubated for 20 min at room temperature (RT). […] Luminescence signal was detected using a plate-reader (SPARK, Tecan) with 100-ms integration time and a 100-ms delay between well reads.
Method for α2A receptor: as §1

Broadly, the efflux ratio is the permeability from basolateral to apical divided by that in the opposite direction, in the common usage. Usually Papp A→B stands for the apparent permeability from the apical to the basolateral side of a cell layer. As a reminder, the Papp B→A is how fast a substance crosses the layer from the basolateral side. A word on the fraction unbound: it is free concentration divided by total concentration. Low values mean little free substance, high ones much free substance. As usually defined, the EC50 is the concentration needed to bring the measured effect to its halfway point. Lower therefore signals a more potent agent. One may read the Emax as the greatest response seen or fitted, relative to the assay's reference. In the case of `CC1=C(c2ccco2)CNCC1` [Compound 65], at 5-HT1A receptor, the “activation of 5-HT1A receptor” value is “did not observe a considerable activation”. Also, in series [1], the efflux ratio at 60 min, 10 μM came out at 2.2. Also, in series [1] (apical-to-basal, 10 μM, pH 7.4), the Papp A→B at 60 min, 10 μM came out at 77 ×10⁻⁶ cm/s. For the same compound, the Papp B→A at 60 min, 10 μM in series [1] (basal-to-apical, 10 μM, pH 7.4) turned out to be 168 ×10⁻⁶ cm/s. In addition, the fraction unbound at 4 h, 10 μM came to 0.61 in series [2] (human, pooled human plasma (50% plasma and 50% isotonic buffer)); 0.81 in series [2] (mouse, mouse plasma (50% plasma and 50% isotonic buffer)). The EC50 on hTAAR1 was 0.398 nM; on α2A receptor, 1000 nM. This compound registered an Emax at α2A receptor (concentration-response curves) of 110%. In addition, the “agonism at the α2A receptor” value at α2A receptor (panel screen) is listed as “agonism”. The “effect on CBT” value in series [3] (TAAR1-KO mice) is on record as “no decrease in CBT was observed”; in series [3] (TAAR1-WT mice, 0.5 and 1 mg/kg i.p.), “reduction of CBT”. Moreover, in series [3] (TAAR1-WT mice), the “maximal reduction of CBT, 5 mg/kg versus 1 mg/kg” value was “did not observe a significant increase in the maximal reduction of CBT”. The “time of peak CBT reduction after injection” value in series [3] (TAAR1-WT mice, 0.5 and 1 mg/kg) came out at 30 min. For the same compound, the “time to return of CBT to baseline” value in series [3] (TAAR1-WT mice, 0.5 and 1 mg/kg) was found to be 2 h. For the same compound, in series [3] (WT mice, 1 mg/kg, 30 and 60 min after injection), the “extent of CBT reduction” value was ~ 1 °C.
